# From EP4678638A1, “NEW E3 UBIQUITIN LIGASE LIGAND, PROTEIN DEGRADATION AGENT AND USE THEREOF” (priority 2023, dated 2024)
# pIC50: −log10 of the molar value. Where two headings read alike, the source gives them in different places.
# Experiments:
# Type in all cases: cell-based, Human
# [1] = system: PC-9; test: CCK-8 proliferation, PC-9; conditions: read-out: Inhibitory activity (IC50) on tumor cell proliferation, PC-9
# In short: (§1)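 Tumor cells were cultured at 37°C with 5% CO2, seeded, and after 24h treated with compounds at 10 concentrations starting at 10µM (5-fold serial dilutions).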
# [2] = system: H1975; test: CCK-8 proliferation, NCI-H1975 (H1975); conditions: read-out: Inhibitory activity (IC50) on tumor cell proliferation, H1975
# In short: as §1
# [3] = system: H1975-1µM Osimertinib cells; test: CCK-8 proliferation, osimertinib-resistant H1975 cells
# Procedure: (§2) The tumor cells used herein were cultured in a cell culture medium listed in table A1 at 37°C in an incubator with 5% CO2. Prior to experimentation, all cell lines used were correctly identified by STR profiling, and tested negative for mycoplasma contamination using a mycoplasma detection kit through routine screenings. Table A1. Tumor cells and cell culture medium used in the present disclosure
# (§3) IC50 values of the compounds of the present disclosure (including the compounds in Table 1, and compounds of examples) were measured using the Meilun Cell Counting Kit-8 kit from Dalian Meilun Biotech Co., Ltd. Assay details are as follows: tumor cells were seeded in a 96-well plate at a density listed in Table A2. After 24h, 100 µL of the inoculated cells were treated with 0.5µL of the compounds of the present disclosure (including the compounds in Tables 1 and 2, and compounds of examples) at 10 different successively decreasing concentrations (starting at the highest concentration of 10µM; 5-fold serial dilutions). After the cells were treated with the compounds of the present disclosure for a period of time, the cell viability detection reagent was added to the culture medium for cell viability assessment according to the instructions provided with the CCK-8 kit. […] The growth inhibition of the compounds of the present disclosure on cells was plotted by Prism Graphpad software, and the IC50 values of the compounds of the present disclosure were calculated therefrom. […] Seeding protocol and treatment time for tumor cells
# [4] = system: HCC827; test: CCK-8 proliferation, HCC827; conditions: read-out: Inhibitory activity (IC50) on tumor cell proliferation, HCC827
# Procedure: as §2, §3
# [5] = system: EGFR; test: Western blot degradation of EGFR (H1975 Cell); conditions: Table D2
# In short: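 After compound exposure, cells were harvested and lysates run on SDS-PAGE, transferred to nitrocellulose and probed with antibodies. Remaining target (%) was computed from band grayscale relative to an internal control protein and normalised; degradation (%) was 100% minus that.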
# [6] = Homo sapiens, PC-9, CCK-8, 96 hours
# [7] = Homo sapiens, NCI-H1975, CCK-8, 96 hours
# [8] = Homo sapiens, NCI-H1975, CCK-8, osimertinib-resistant H1975 cells obtained by treating H1975 cells with 1 µM Osimertinib for 3 months, read-out: Inhibitory activity (IC50) on tumor cell proliferation, H1975-1µm Osimertinib
# [9] = Homo sapiens, HCC827, CCK-8, 96 hours
SMILES,"pIC50 [1, 6]","pIC50 [2, 7]","pIC50 [3, 8]","pIC50 [4, 9]",Degradation of substrate protein EGFR (substrate protein remaining %) [5],other results
"O=C1CCN(c2ccc(CN3CCN(C4CCN(c5ccc(Nc6ncc7nc(Nc8ccccc8)n(C8CCCC8)c7n6)cc5)CC4)CC3)cc2)C(=O)N1 [GT-05917, 1-(4-((4-(1-(4-((9-cyclopentyl-8-(phenylamino)-9H-purin-2-yl)amino)phenyl)piperidin-4-yl)piperazin-1-yl)methyl)phenyl)dihydropyrimidine-2,4(1H,3H)-dione]",8.00 to 9.00,6.30 to 7.00,6.00 to 6.30,8.00 to 9.00,A (A is defined as 0% ≤ substrate protein remaining % ≤ 80%),–
"C=CC(=O)Nc1cc(Nc2nccc(-c3cn(C)c4ccccc34)n2)c(OC)cc1N(C)CCN(C)C [osimertinib, reference compound]",–,–,–,–,–,"pIC50 ([1]; Homo sapiens, PC-9, 96 h): 7.30 to 8.00; pIC50 ([2]; Homo sapiens, NCI-H1975, 96 h): 6.30 to 7.00; pIC50 ([3]; Homo sapiens, NCI-H1975, read-out: Inhibitory activity (IC50) on tumor cell proliferation, H1975-1µm Osimertinib): < 5.00; pIC50 ([4]; Homo sapiens, HCC827, 96 h): 7.30 to 8.00"
"CC(C)n1nc(N2CCC(N(C)Cc3ccc(C4CCC(=O)NC4=O)cc3)CC2)c2cnc(Nc3ccnc(-c4cnn(S(=O)(=O)C5CC5)c4)n3)cc21 (stereo not drawn) [GT-06020, 3-(4-(((1-(6-((2-(1-(cyclopropylsulfonyl)-1H-pyrazol-4-yl)pyrimidin-4-yl)amino)-1-isopropyl-1H-pyrazolo[4,3-c]pyridin-3-yl)piperidin-4-yl)(methyl)amino)methyl)phenyl)piperidine-2,6-dione]",7.00 to 7.30,–,6.30 to 7.00,6.30 to 7.00,–,–
"O=C1CCN(c2ccc(CN3CCN(C4CCN(c5ccc(NC6=NC=C7N=C(Nc8ccccc8)N(C8CCCC8)C7N6)cc5)CC4)CC3)cn2)C(=O)N1 (stereo not drawn) [GT-05942, 1-(5-((4-(1-(4-((9-cyclopentyl-8-(phenylamino)-4,9-dihydro-3H-purin-2-yl)amino)phenyl)piperidin-4-yl)piperazin-1-yl)methyl)pyridin-2-yl)dihydropyrimidine-2,4(1H,3H)-dione]",8.00 to 9.00,–,6.00 to 6.30,7.30 to 8.00,A (A is defined as 0% ≤ substrate protein remaining % ≤ 80%),–
"COc1cc(N2CCC(N3CCN(CCC#Cc4cccc5c4CN(C4CCC(=O)NC4=O)C5=O)CC3)CC2)ccc1Nc1ncc(Cl)c(Nc2ccccc2P(C)(C)=O)n1 (stereo not drawn) [HJM-561, reference compound]",–,–,–,–,–,"pIC50 ([1]; CCK-8, 96 hours): 6.30 to 7.00; pIC50 ([2]; CCK-8, 96 hours): 7.00 to 7.30; pIC50 ([3]; CCK-8, osimertinib-resistant H1975 cells obtained by treating H1975 cells with 1 µM Osimertinib for 3 months, read-out: Inhibitory activity (IC50) on tumor cell proliferation, H1975-1µm Osimertinib): 5.30 to 6.00; pIC50 ([4]; CCK-8, 96 hours): 6.00 to 6.30"
"COc1cc(N2CCC(N(C)Cc3ccc(N4CCC(=O)NC4=O)cn3)CC2)c(C)cc1Nc1ncc(Br)c(Nc2ccc3nccnc3c2P(C)(C)=O)n1 [GT-05952, 1-(6-(((1-(4-((5-bromo-4-((5-(dimethylphosphoryl)quinoxalin-6-yl)amino)pyrimidin-2-yl)amino)-5-methoxy-2-methylphenyl)piperidin-4-yl)(methyl)amino)methyl)pyridin-3-yl)dihydropyrimidine-2,4(1H,3H)-dione]",6.30 to 7.00,–,6.00 to 6.30,6.00 to 6.30,A (A is defined as 0% ≤ substrate protein remaining % ≤ 80%),–
"CC(C)n1nc(N2CCC(N(C)Cc3ccc(N4CCC(=O)NC4=O)cc3)CC2)c2cnc(Nc3ccnc(-c4cnn(S(=O)(=O)C5CC5)c4)n3)cc21 [GT-06021, 1-(4-(((1-(6-((2-(1-(cyclopropylsulfonyl)-1H-pyrazol-4-yl)pyrimidin-4-yl)amino)-1-isopropyl-1H-pyrazolo[4,3-c]pyridin-3-yl)piperidin-4-yl)(methyl)amino)methyl)phenyl)dihydropyrimidine-2,4(1H,3H)-dione]",6.30 to 7.00,–,6.00 to 6.30,6.30 to 7.00,A (A is defined as 0% ≤ substrate protein remaining % ≤ 80%),–
"COc1cc(N2CCC(N(C)Cc3ccc(C4CCC(=O)NC4=O)cc3)CC2)c(C)cc1Nc1ncc(Br)c(Nc2ccc3nccnc3c2P(C)(C)=O)n1 (stereo not drawn) [GT-03930, 3-(4-(((1-(4-((5-bromo-4-((5-(dimethylphosphoryl)quinoxalin-6-yl)amino)pyrimidin-2-yl)amino)-5-methoxy-2-methylphenyl)piperidin-4-yl)(methyl)amino)methyl)phenyl)piperidine-2,6-dione]",6.30 to 7.00,7.00 to 7.30,6.00 to 6.30,6.30 to 7.00,–,–
"COc1cc(N2CCN(Cc3cccc(N4CCC(=O)NC4=O)c3)CC2)c(C)cc1Nc1ncc(Br)c(Nc2ccc3nccnc3c2P(C)(C)=O)n1 [GT-04206, 1-(3-((4-(4-((5-bromo-4-((5-(dimethylphosphoryl)quinoxalin-6-yl)amino)pyrimidin-2-yl)amino)-5-methoxy-2-methylphenyl)piperazin-1-yl)methyl)phenyl)dihydropyrimidine-2,4(1H,3H)-dione]",6.30 to 7.00,6.30 to 7.00,6.30 to 7.00,6.30 to 7.00,A (A is defined as 0% ≤ substrate protein remaining % ≤ 80%),–
"O=C1CCC(c2ccc(CN3CCN(C4CCN(c5ccc(Nc6ncc7nc(Nc8ccccc8)n(C8CCCC8)c7n6)cc5)CC4)CC3)cc2)C(=O)N1 (stereo not drawn) [GT-05915, 3-(4-((4-(1-(4-((9-cyclopentyl-8-(phenylamino)-9H-purin-2-yl)amino)phenyl)piperidin-4-yl)piperazin-1-yl)methyl)phenyl)piperidine-2,6-dione]",8.00 to 9.00,7.00 to 7.30,6.00 to 6.30,8.00 to 9.00,A (A is defined as 0% ≤ substrate protein remaining % ≤ 80%),–
"COc1cc(N2CCC(N(C)Cc3cccc(N4CCC(=O)NC4=O)c3)CC2)c(C)cc1Nc1ncc(Br)c(Nc2ccc3nccnc3c2P(C)(C)=O)n1 [GT-04214, 1-(3-(((1-(4-((5-bromo-4-((5-(dimethylphosphoryl)quinoxalin-6-yl)amino)pyrimidin-2-yl)amino)-5-methoxy-2-methylphenyl)piperidin-4-yl)(methyl)amino)methyl)phenyl)dihydropyrimidine-2,4(1H,3H)-dione]",7.00 to 7.30,7.30 to 8.00,6.30 to 7.00,6.30 to 7.00,A (A is defined as 0% ≤ substrate protein remaining % ≤ 80%),–
"COc1cc(N2CCC(N3CCN(Cc4cccc(N5CCC(=O)NC5=O)c4)CC3)CC2)c(C)cc1Nc1ncc(Br)c(Nc2ccc3nccnc3c2P(C)(C)=O)n1 [GT-04260, 1-(3-((4-(1-(4-((5-bromo-4-((5-(dimethylphosphoryl)quinoxalin-6-yl)amino)pyrimidin-2-yl)amino)-5-methoxy-2-methylphenyl)piperidin-4-yl)piperazin-1-yl)methyl)phenyl)dihydropyrimidine-2,4(1H,3H)-dione]",7.00 to 7.30,7.00 to 7.30,6.30 to 7.00,7.00 to 7.30,A (A is defined as 0% ≤ substrate protein remaining % ≤ 80%),–
"COc1cc(N2CCN(Cc3ccc(N4CCC(=O)NC4=O)nc3)CC2)c(C)cc1Nc1ncc(Br)c(Nc2ccc3nccnc3c2P(C)(C)=O)n1 [GT-05947, 1-(5-((4-(4-((5-bromo-4-((5-(dimethylphosphoryl)quinoxalin-6-yl)amino)pyrimidin-2-yl)amino)-5-methoxy-2-methylphenyl)piperazin-1-yl)methyl)pyridin-2-yl)dihydropyrimidine-2,4(1H,3H)-dione]",7.00 to 7.30,6.30 to 7.00,6.30 to 7.00,6.30 to 7.00,A (A is defined as 0% ≤ substrate protein remaining % ≤ 80%),–
"COc1cc(N2CCC(N(C)Cc3ccc(N4CCC(=O)NC4=O)cc3)CC2)c(C)cc1Nc1ncc(Br)c(Nc2ccc3nccnc3c2P(C)(C)=O)n1 [GT-05951, 1-(4-(((1-(4-((5-bromo-4-((5-(dimethylphosphoryl)quinoxalin-6-yl)amino)pyrimidin-2-yl)amino)-5-methoxy-2-methylphenyl)piperidin-4-yl)(methyl)amino)methyl)phenyl)dihydropyrimidine-2,4(1H,3H)-dione]",6.30 to 7.00,–,6.00 to 6.30,–,A (A is defined as 0% ≤ substrate protein remaining % ≤ 80%),–
